Results: patent US20070105114A1, “Biomarkers of cyclin-dependent kinase modulation” (priority 2003, published 2007)
Counter-ions that a name gives are not always drawn. Like-named read-outs stand apart in the source and are kept apart here.

Key:
[1] = system: A2780 ovarian carcinoma cells; test: Clonogenic growth assay (colony formation); format: cell-based, human; details: for IC50 / IC90: Homo sapiens, A2780, A2780s Clonogenic assay; for IC50: read-out: IC50, inhibition of colony formation; for IC90: read-out: IC90, inhibition of colony formation
Protocol: Clonogenic Growth Assay: The colony growth inhibition was measured for the A2780 ovarian carcinoma cells using a standard clonogenic assay. In this assay, 200 cells/well were seeded into 6-well tissue culture plates (Falcon™) (Becton, Dickinson and Company, Franklin Lakes, N.J., USA) and allowed to attach for 18 hours. Assay medium consisted of RPMI-1640 plus 10% fetal bovine serum. Cells were then treated in duplicate with a six concentration dose-response curve. The maximum concentration of DMSO never exceeded 0.25%. Cells were exposed to the cdk2 inhibitor for 4, 8, or 24 hours. The cdk2 inhibitor was then removed and the cells were washed with 2 volumes of PBS. The normal growth medium was then replaced. Colonies were fed with fresh media every third day. Colony number was scored on day 10-14 using a Optimax imaging station. The cdk2 inhibitor concentration required to inhibit 50% or 90% of colony formation (IC50 or IC90, respectively) was determined by non-linear regression analysis. The coefficient of variance (standard deviation/mean, n=3)=30%. Treatment of A2780 and PBMC was carried out as described above. The doses of the cdk2 inhibitor were derived from an understanding of the kinetics of tumor cell growth inhibition by the cdk2 inhibitor as assessed by proliferation and clonogenic assays (Table 3). […] A minimal exposure of 8 hours was required for effective inhibition of colony formation. The values obtained from the 24 hour clonogenic assay were in good agreement with the 72 hour proliferation assay.

A2780s = test: 72 hr XTT proliferation assay; format: cell-based; details: Homo sapiens, 72 hr. XTT assay
Protocol: Treatment of A2780 and PBMC was carried out as described above. The doses of the cdk2 inhibitor were derived from an understanding of the kinetics of tumor cell growth inhibition by the cdk2 inhibitor as assessed by proliferation and clonogenic assays (Table 3). […] A minimal exposure of 8 hours was required for effective inhibition of colony formation. The values obtained from the 24 hour clonogenic assay were in good agreement with the 72 hour proliferation assay.

W28729 [2] = test: W28729 expression by real-time quantitative PCR in cultured A2780 tumor cells; format: cell-based, human; details: 20 nM
Protocol: Real-Time Quantitative PCR Assays: A Taqman® real-time-PCR fluorogenic assay (Applied Biosystems, Foster City, Calif., USA) was used to quantitate the levels of specific mRNA. The cdk2 inhibitor treated A2780s cells were harvested at approximately 70% confluence and total RNA was prepared using the Qiagen RNeasy 96 Kit.
Taqman® reactions were prepared as follows: 100 ng total RNA; 25 nM-750 nM Forward Primer; 25 nM-750 nM Reverse Primer; 200 nM-400 nM Taqman® Probe (fluorescent dye labeled oligonucleotide primer); 1X Buffer A (Applied Biosystems, Foster City, Calif., USA); 5.5 mM MgCl2; 300 μM DATP, dGTP, dTTP, dCTP; 1 U Amplitaq Gold; 20 U Superscript 2; 1 U RNase Inhibitor. Real-time PCR was performed using an Applied Biosystems 7700 Sequence Detection System. […]
The Sequence Detection System generates a Ct (threshold cycle) value that is used to calculate a concentration for each input messenger RNA template. Messenger RNA levels for each gene or fragment thereof of interest were normalized to GAPDH message levels to compensate for variations in total RNA quantity in the input sample. […] Ct values for the gene or fragments thereof of interest and GAPDH were inserted into the δδCt equation: Relative Quantity of Nucleic Acid Template=2^δδCt=2^(δCta-δCtb)(δCta=Ct target−Ct GAPDH, δCtb=Ct reference−Ct GAPDH) which was used to calculate a normalized relative message level. […]

mouse ortholog of W28729 = test: Mouse ortholog of W28729 expression in PBMC of tumor mice; format: in vivo; details: PBMC isolated from the tumor mice, compared with tumors
Protocol: At the minimum efficacious dose (MED) of 18 mg/kg/day, the induction was sustained for more than 6 hours. In an infusion regimen using the minimum efficacious dose of 40 mg/kg, gene induction was sustained for at least 16 hours. […] Treatment with an efficacious regimen results in >2 fold induction of the sequence for 6 hours or longer. […] In addition, these observations support the use of PBMC as a surrogate tissue for monitoring changes in gene expression, that result from treatment with the cdk2 inhibitor.

W28729 [3] = test: Clinical study CA174-001 (1 hr infusion), W28729 expression in patient PBMC by RT-PCR; format: in vivo, human; details: patients
Protocol: Patient inclusion criteria: The patient inclusion criteria included: primary solid malignancy refractory to current therapy and adequate bone marrow, hepatic, and renal function. Treatments: Two different treatments were undertaken: (i) 174-001 Study: 1 hr infusion of BMS-387032 q 3 wks; and (ii) 174-002 Study: 24 hr infusion of BMS-387032 q 3 wks. The sampling times were pre-dose, and 2, 6, 24 hour post-dose. W28729 Expression Analysis: RT-PCR. Patient blood samples were collected in PAXgene™ Blood Collection Tubes (Qiagen, catalog #762155). Total RNA was isolated following the manufacturer's instructions using a PAXgene™ blood RNA Kit (Qiagen, catalog #762134). W28729 and GAPDH (housekeeping gene) RNA abundance was measured by Taqman assays, using an ABI PRISM 7900 HT Sequence Detection System. W28729 abundance was normalized relative to GAPDH. Primer and probe sequences are as shown below.

IC50 ([1]; 4 hr. exposure): 302 nM
IC90 ([1]; 4 hr. exposure): > 1000 nM
IC50 ([1]; 8 hr. exposure): 154 nM
IC90 ([1]; 8 hr. exposure): 303 nM
IC50 ([1]; 24 hr. exposure): 166 nM
IC90 ([1]; 24 hr. exposure): 208 nM
IC50 (A2780s): 95 nM
IC90 (A2780s): 170 nM
Structure (SMILES): CC(C)(C)c1cnc(CSc2cnc(NC(=O)C3CCNCC3)s2)o1 [cdk2 inhibitor, N-5-[[5-(1,1-Dimethylethyl)-2-oxazolyl]methyl]thio]-2-thiazolyl-4-piperidinecarboxamide, 0.5-L-tartaric acid salt]
minimal exposure required for effective inhibition of colony formation ([1]; A2780s): 8 h
growth inhibition, dependence on exposure time ([1]; A2780s, proliferation and clonogenic assays): time dependent
induction of W28729 (W28729 [2]): induction of W28729 occurred
time after treatment at which W28729 induction was detected (W28729 [2]): 1 h
induction of the mouse ortholog sequence in PBMC (mouse ortholog of W28729): strikingly similar pattern of induction
time of return of W28729 to baseline levels (W28729 [3]; 1 hour infusion): ≤ 6 h
W28729 induction in PBMC (W28729 [3]; 1 hour infusion, at 2 hours): transient induction of W28729
relationship between W28729 gene induction and dose or exposure (AUC) (W28729 [3]; CA174-001): linear relationship
